The values that follow come from PubChem BioAssay (NCI).

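Five concentrations, 48 hours, 96-well plates. TGI marks complete inhibition of growth.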

Holding throughout (test): NCI-60 cell line screen, 48 h
For assay [1], the system named is IGROV1 ovarian.
The test system of assay [2] is RPMI-8226 leukemia.
The test system of assay [3] is BT-549 breast.
For assay [4], the system named is A498 renal.
Assay [5] concerns SF-295 CNS.
Assay [6] has as its system MCF7 breast.
In assay [7] the test system is HCT-116 colon.
Assay [8] has as its system SN12C renal.
Assay [9] has as its system LOX IMVI melanoma.
Assay [10] concerns SK-OV-3 ovarian.

On to `CC1(C)OCC2OC3([C@@H]4OC(C)(C)O[C@H]4CO)OC(C)(C)OC3C2O1` (stereo not given in full), for which the TGI in [1], in assay [2], in assay [3], in [4], in [5] and in assay [6] was greater than 100 µM each time. The TGI in [7], in [8] and in assay [9] was greater than 100 µM in each case.
`CN1C(=O)N(C)C(O)C(Cl)(Br)C1=O` (stereo not given): the TGI in assay [1], in [2], in assay [10], in assay [3], in [4] and in [5] was greater than 100 µM in each case. The TGI in [6], in assay [7], in assay [8] and in assay [9] was greater than 100 µM in each case.
Regarding `O=P(O)(O)c1ccccc1Oc1ccccc1`, the TGI in assay [1], in assay [2], in [10], in assay [3], in assay [4] and in [5] was greater than 100 µM each time. The TGI in assay [6], in [7], in assay [8] and in assay [9] was greater than 100 µM each time.
As for `O=c1nc2c(c(-c3ccc(Br)cc3)[nH]1)COC/C2=C\c1ccc(Br)cc1`, the TGI in assay [1], in assay [2], in assay [10], in assay [3], in assay [4] and in assay [5] was greater than 50 µM in each case. Besides, the TGI in assay [6], in assay [7], in assay [8] and in [9] was greater than 50 µM each time.
For the compound `Cc1[nH]c(=O)nc(NCCNCCO)c1C(=O)Nc1cccc2cc3ccccc3cc12`, the TGI is greater than 100 µM in [1]; greater than 100 µM in assay [2]; greater than 100 µM in [3]; greater than 100 µM in [4]; greater than 100 µM in assay [5]; greater than 44 µM in assay [6]. In addition, the TGI in assay [7], in assay [8] and in assay [9] was greater than 100 µM in each case.
As to `CC1=NN(c2nc(N)nc(-c3sccc3N)n2)C(C)(C)C1`, the TGI is greater than 100 µM in [1]; 70.9 µM in assay [2]; greater than 100 µM in assay [10]; greater than 100 µM in assay [3]; greater than 100 µM in [4]; greater than 100 µM in assay [5]. Also, the TGI in assay [6], in assay [7], in [8] and in assay [9] was greater than 100 µM throughout.
As for `O=[N+]([O-])c1ccc(NC(=S)N=Nc2c(O)[nH]c3ccc([N+](=O)[O-])cc23)cc1`, the TGI in assay [1] is 40 µM; in assay [2], greater than 100 µM; in assay [10], 41.8 µM; in [3] it was 33.7 µM; in [4] it was 32.7 µM; in assay [5] it was 45.1 µM. Besides, the TGI is 84.1 µM in assay [6], 46.3 µM in assay [7], greater than 100 µM in assay [8] and 49.1 µM in assay [9].
As to `CC1C(NNc2ccccc2)Oc2cc3c(cc2C1c1ccccc1O)OCO3` (stereo not given), the TGI in assay [1] stood at 19.3 µM; in assay [2], 24.7 µM; in [10], 22.3 µM; in [3], 27.4 µM; in [4], 29.2 µM; in [5] it was 3.49 µM. The TGI worked out at 16.8 µM in assay [6], 18.7 µM in assay [7], 20.1 µM in assay [8] and 28.6 µM in assay [9].
Regarding `Cn1c(=O)c2c(nc3n(Cc4ccccc4)c(=O)c(NCCCBr)cn23)n(C)c1=O`, the TGI in assay [1] was greater than 100 µM; in assay [2] it was greater than 100 µM; in assay [10], 97.3 µM; in assay [3], greater than 100 µM; in [4], greater than 100 µM; in assay [5], greater than 100 µM. The TGI in assay [6], in [7], in [8] and in [9] was greater than 100 µM in each case.
Turning to `Cc1cc2c(O)c(c1)CN(CC(=O)O)Cc1cc(C)cc(c1O)CN(CC(=O)O)Cc1cc(C)cc(c1O)CN(CC(=O)O)C2`, the TGI in [2], in [10], in assay [3], in assay [4], in [5] and in assay [6] was greater than 100 µM throughout. Besides, the TGI in assay [7], in assay [8] and in [9] was greater than 100 µM throughout.
As to `CS(=O)(=O)Nc1ccc2c(c1)N(S(C)(=O)=O)CC2CCl` (stereo not given), the TGI in [1], in assay [2], in [3], in assay [4], in [5] and in assay [6] was greater than 100 µM in each case. Also, the TGI in [7], in [8] and in [9] was greater than 100 µM throughout.
Turning to `N#C/C(C(=O)Nc1ccc(Cl)cc1)=C(/N)N1CCCC1`, the TGI in [1], in assay [2], in assay [10], in assay [3], in assay [4] and in assay [5] was greater than 100 µM throughout. Also, the TGI in assay [6], in assay [7], in assay [8] and in [9] was greater than 100 µM in each case.
For the compound `COc1cc(C(c2c(O)c3ccccc3oc2=O)c2c(O)c3ccccc3oc2=O)cc(Br)c1O`, the TGI in [1] stood at 30 µM; in [2], 80.4 µM; in assay [10], 35.8 µM; in assay [3] it was 32.5 µM; in [4] it was 29.4 µM; in assay [5], 40.3 µM. The TGI in [6] worked out at 31.3 µM; in [7] it was 32.7 µM; in assay [8], 29.8 µM; in assay [9] it was 33.8 µM.
Turning to `Cc1cc(S(=O)(=O)Nc2n[nH]c(-c3ccccn3)n2)c(S)cc1Cl`, the TGI in assay [1] was 85.4 µM; in [2], greater than 100 µM; in assay [10], 37.3 µM; in [3], 79.6 µM; in [4], 30.5 µM; in assay [6], greater than 100 µM. For the same compound, the TGI in assay [7] was 55.1 µM; in assay [8] it was greater than 100 µM; in assay [9] it was greater than 100 µM.
